Entries after “also recorded” stand apart in the source; their conditions may differ. Peptide text beside a SMILES is read from it.
What was measured:
A. baumannii ATCC 19606 [1] = assay: Skin abscess infection mouse model; type: in vivo, CD-1 mice; conditions: for bacterial count, skin abscess (Panel 6b): CD-1 mice; for Anti-infective activity in skin abscess model, in words: single dose at MIC, compared with untreated control and polymyxin B, n = 6
Procedure: A. baumannii ATCC 19606 cells were grown in LB medium to an OD600 = 0.5. Cells were washed twice with sterile phosphate-buffered saline (PBS) (pH 7.4, 13,000 r.p.m. for 2 min) and resuspended to a final concentration of 10^6 (A. baumannii cells) colony-forming units per millilitre (c.f.u. ml^−1). Six-week-old female CD-1 mice from Charles River (stock number 18679700-022) were anaesthetized with isoflurane, and their backs were sterilized and shaved. A superficial linear skin abrasion was made with a needle to damage the stratum corneum and upper layer of the epidermis. An aliquot of 20 μl containing the bacterial load resuspended in PBS was inoculated over the scratched area. Two hours after the infection, peptides diluted in water at their MIC value were administered to the infected area, and the untreated mice were inoculated with the same volume of deionized water. Mice were euthanized, and the area of scarified skin was excised 2 days and 4 days post infection, homogenized using a bead beater for 20 min (25 Hz) and then serially diluted tenfold for quantification of colony-forming units. This quantitative method was used as it has been established to accurately reflect the number of bacteria present in a given infected area. MacConkey agar plates were used as A. baumannii colonies appear purple in this medium and can easily be distinguished from other strains. The experiments were performed with six mice per group. All experiments were performed blindly, and no animal subjects were excluded from the analysis. The skin abscess infection mouse model was approved by the University Laboratory Animal Resources from the University of Pennsylvania (protocol 806763). Statistical significance was determined using one-way analysis of variance (ANOVA) followed by Dunnett’s test in log10-transformed data to mitigate the effect of outliers; P values are presented for each group, with all groups being compared to the untreated control group.

A. baumannii ATCC 19606 [2] = assay: Neutropenic thigh infection mouse model; type: in vivo, CD-1 mice; conditions: neutropenic CD-1 mice
Procedure: Six-week-old female CD-1 mice from Charles River (stock number 18679700-022) were rendered neutropenic by two doses of cyclophosphamide (150 mg kg^−1) applied intraperitoneally with an interval of 72 h. One day after the last dose of cyclophosphamide, the mice were injected intramuscularly in their right thigh with a bacterial load of 10^6 c.f.u. ml^−1 of A. baumannii ATCC 19606 cells. The bacteria had been grown in LB broth, washed twice with PBS (pH 7.4), and resuspended to the desired concentration. Two hours after bacterial injection, peptides resuspended in water were administered intraperitoneally, and the untreated mice were inoculated with the same volume of deionized water. Before each injection, mice were anaesthetized with isoflurane and monitored for respiratory rate and pedal reflexes. Next, we monitored the establishment of the infection and euthanized the mice. The infected area was excised 2 days and 4 days post infection, homogenized using a bead beater for 20 min (25 Hz), and then serially diluted tenfold for quantification of colony-forming units in MacConkey agar plates. The experiments were performed with six mice per group. All experiments were performed blindly, and no animal subjects were excluded from the analysis. The thigh infection mouse model was approved by the University Laboratory Animal Resources from the University of Pennsylvania (protocol 807055). Statistical significance was determined using one-way ANOVA followed by Dunnett’s test in log10-transformed data to mitigate the effect of outliers; P values are presented for each group, with all groups being compared to the untreated control group.

HEK293T cells = conditions: 24 h
Procedure, shortened: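 5,000 cells/well seeded a day ahead in DMEM with 10% FBS, then treated with peptides; viability by MTT (0.5 mg/ml, 4 h, 37 °C), formazan in acidic isopropanol read at 570 nm. Concentration causing 50% lysis from non-linear regression; three biological replicates, two technical each.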

[3] = A. baumannii ATCC 19606, day 2, replicate 1
[4] = A. baumannii ATCC 19606, day 2, replicate 2
[5] = A. baumannii ATCC 19606, day 2, replicate 3
[6] = A. baumannii ATCC 19606, day 2, replicate 4
[7] = A. baumannii ATCC 19606, day 2, replicate 5
[8] = A. baumannii ATCC 19606, day 2, replicate 6
[9] = A. baumannii ATCC 19606, day 4, replicate 1
[10] = A. baumannii ATCC 19606, day 4, replicate 2
[11] = A. baumannii ATCC 19606, day 4, replicate 3
[12] = A. baumannii ATCC 19606, day 4, replicate 4
[13] = A. baumannii ATCC 19606, day 4, replicate 5
[14] = A. baumannii ATCC 19606, day 4, replicate 6

CC[C@H](C)[C@H](N)C(=O)N[C@@H](Cc1ccccc1)C(=O)N[C@@H](CC(C)C)C(=O)N[C@@H](Cc1c[nH]cn1)C(=O)N[C@@H](CC(C)C)C(=O)N[C@@H](CCCCN)C(=O)N[C@H](C(=O)N[C@@H](CC(C)C)C(=O)N[C@@H](CCCCN)C(=O)N[C@H](C(=O)N[C@H](C(=O)N[C@@H](CCCNC(=N)N)C(=O)N[C@@H](CC(C)C)C(=O)N[C@@H](CC(C)C)C(=O)O)[C@@H](C)CC)[C@@H](C)CC)[C@@H](C)CC [Elephasin-2] (H-IFLHLKILKIIRLL-OH; N-terminus and C-terminus assumed)
bacterial count, skin abscess (Panel 6b) (A. baumannii ATCC 19606 [1]; [3]): 200000
bacterial count, skin abscess (Panel 6b) (A. baumannii ATCC 19606 [1]; [4]): 200000
bacterial count, skin abscess (Panel 6b) (A. baumannii ATCC 19606 [1]; [5]): 8000000
bacterial count, skin abscess (Panel 6b) (A. baumannii ATCC 19606 [1]; [6]): 4000000
bacterial count, skin abscess (Panel 6b) (A. baumannii ATCC 19606 [1]; [7]): 200000
bacterial count, skin abscess (Panel 6b) (A. baumannii ATCC 19606 [1]; [8]): 400000
bacterial count, skin abscess (Panel 6b) (A. baumannii ATCC 19606 [1]; [9]): 40000
bacterial count, skin abscess (Panel 6b) (A. baumannii ATCC 19606 [1]; [10]): 20000
bacterial count, skin abscess (Panel 6b) (A. baumannii ATCC 19606 [1]; [11]): 800000
bacterial count, skin abscess (Panel 6b) (A. baumannii ATCC 19606 [1]; [12]): 800000
bacterial count, skin abscess (Panel 6b) (A. baumannii ATCC 19606 [1]; [13]): 200
bacterial count, skin abscess (Panel 6b) (A. baumannii ATCC 19606 [1]; [14]): 200
Anti-infective activity in skin abscess model, in words (A. baumannii ATCC 19606 [1]): comparable to that of the widely used antibiotic polymyxin B; also recorded: inhibited the proliferation of the infection for up to 4 days after treatment; also recorded: cleared the infection in some of the mice
bacterial count, thigh infection (Panel 6d) (A. baumannii ATCC 19606 [2]; [3]): 2e+007
bacterial count, thigh infection (Panel 6d) (A. baumannii ATCC 19606 [2]; [4]): 4e+007
bacterial count, thigh infection (Panel 6d) (A. baumannii ATCC 19606 [2]; [5]): 4e+007
bacterial count, thigh infection (Panel 6d) (A. baumannii ATCC 19606 [2]; [6]): 4e+007
bacterial count, thigh infection (Panel 6d) (A. baumannii ATCC 19606 [2]; [7]): 8e+007
bacterial count, thigh infection (Panel 6d) (A. baumannii ATCC 19606 [2]; [8]): 1e+008
bacterial count, thigh infection (Panel 6d) (A. baumannii ATCC 19606 [2]; [9]): 1400000
bacterial count, thigh infection (Panel 6d) (A. baumannii ATCC 19606 [2]; [10]): 1000000
bacterial count, thigh infection (Panel 6d) (A. baumannii ATCC 19606 [2]; [11]): 4000000
bacterial count, thigh infection (Panel 6d) (A. baumannii ATCC 19606 [2]; [12]): 1000000
bacterial count, thigh infection (Panel 6d) (A. baumannii ATCC 19606 [2]; [13]): 800000
bacterial count, thigh infection (Panel 6d) (A. baumannii ATCC 19606 [2]; [14]): 4000000
CC50 (HEK293T cells): > 128 µM

CC[C@H](C)[C@H](NC(=O)[C@H](CO)NC(=O)[C@H](CCCNC(=N)N)NC(=O)[C@H](C)NC(=O)[C@H](Cc1c[nH]cn1)NC(=O)[C@H](CC(C)C)NC(=O)[C@H](CS)NC(=O)[C@H](C)NC(=O)[C@@H](N)CCCNC(=N)N)C(=O)N[C@@H](C)C(=O)N[C@@H](CCCNC(=N)N)C(=O)N[C@@H](CC(C)C)C(=O)N[C@@H](Cc1c[nH]cn1)C(=O)N[C@@H](CCCCN)C(=O)N[C@@H](CCCNC(=N)N)C(=O)N[C@@H](Cc1c[nH]c2ccccc12)C(=O)N[C@@H](CCCNC(=N)N)C(=O)N1CCC[C@H]1C(=O)N[C@H](C(=O)N[C@@H](Cc1c[nH]cn1)C(=O)N[C@@H](CCC(N)=O)C(=O)NCC(=O)N[C@@H](CC(C)C)C(=O)NCC(=O)N[C@@H](CC(C)C)C(=O)N[C@@H](CCCCN)C(=O)O)C(C)C [Mammuthusin-2] (H-RACLHARSIARLHKRWRPVHQGLGLK-OH; N-terminus and C-terminus assumed)
bacterial count, skin abscess (Panel 6b) (A. baumannii ATCC 19606 [1]; [3]): 600000
bacterial count, skin abscess (Panel 6b) (A. baumannii ATCC 19606 [1]; [4]): 400000
bacterial count, skin abscess (Panel 6b) (A. baumannii ATCC 19606 [1]; [5]): 800000
bacterial count, skin abscess (Panel 6b) (A. baumannii ATCC 19606 [1]; [6]): 200000
bacterial count, skin abscess (Panel 6b) (A. baumannii ATCC 19606 [1]; [7]): 4000000
bacterial count, skin abscess (Panel 6b) (A. baumannii ATCC 19606 [1]; [8]): 1e+007
bacterial count, skin abscess (Panel 6b) (A. baumannii ATCC 19606 [1]; [9]): 200000
bacterial count, skin abscess (Panel 6b) (A. baumannii ATCC 19606 [1]; [10]): 200000
bacterial count, skin abscess (Panel 6b) (A. baumannii ATCC 19606 [1]; [11]): 800000
bacterial count, skin abscess (Panel 6b) (A. baumannii ATCC 19606 [1]; [12]): 1200000
bacterial count, skin abscess (Panel 6b) (A. baumannii ATCC 19606 [1]; [13]): 20000
bacterial count, skin abscess (Panel 6b) (A. baumannii ATCC 19606 [1]; [14]): 20000
Anti-infective activity in skin abscess model, in words (A. baumannii ATCC 19606 [1]): inhibited the proliferation of the infection for up to 4 days after treatment
bacterial count, thigh infection (Panel 6d) (A. baumannii ATCC 19606 [2]; [3]): 800000
bacterial count, thigh infection (Panel 6d) (A. baumannii ATCC 19606 [2]; [4]): 2e+007
bacterial count, thigh infection (Panel 6d) (A. baumannii ATCC 19606 [2]; [5]): 4000000
bacterial count, thigh infection (Panel 6d) (A. baumannii ATCC 19606 [2]; [6]): 2000000
bacterial count, thigh infection (Panel 6d) (A. baumannii ATCC 19606 [2]; [7]): 1e+007
bacterial count, thigh infection (Panel 6d) (A. baumannii ATCC 19606 [2]; [8]): 4000000
bacterial count, thigh infection (Panel 6d) (A. baumannii ATCC 19606 [2]; [9]): 800000
bacterial count, thigh infection (Panel 6d) (A. baumannii ATCC 19606 [2]; [10]): 600000
bacterial count, thigh infection (Panel 6d) (A. baumannii ATCC 19606 [2]; [11]): 6000000
bacterial count, thigh infection (Panel 6d) (A. baumannii ATCC 19606 [2]; [12]): 6000000
bacterial count, thigh infection (Panel 6d) (A. baumannii ATCC 19606 [2]; [13]): 2000000
bacterial count, thigh infection (Panel 6d) (A. baumannii ATCC 19606 [2]; [14]): 4000000
CC50 (HEK293T cells): > 128 µM
TI (therapeutic index) (HEK293T cells): > 4
